Test results reported in ChEMBL document CHEMBL1201862, “PubChem BioAssay data set” (2004).
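48-hour exposure; five concentrations; linearly interpolated endpoints. GI50 = concentration required for 50% inhibition of growth.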 The source made the active and inactive calls. Cut-off read from the data, not from the text of the source: active = GI50 up to about 1.1 µM and inactive = higher. Where a SMILES comes first, the peptide text is derived from it. Non-standard residues stand in square brackets, D forms with d. Residues, ends and D or L forms follow the SMILES beside them. The star is where a group is joined. *: point of attachment. Bn2Val = CC(C)[C@@H](C(=O)*)N(Cc1ccccc1)Cc1ccccc1; NH(4-Cl-benzyl) = Clc1ccc(CN*)cc1; NMeV = CN[C@H](C(=O)O)C(C)C; dNMeA = CN[C@H](C)C(=O)O; Boc = CC(C)(C)OC(=O)*

What was measured:
Assay in all cases: DTP human tumour cell line panel, 48 h
Hs-578T = system: Hs-578T
XF498 = system: XF498
SNB-78 = system: SNB-78
KM-20L2 = system: KM-20L2
M19-MEL = system: M19-MEL
DMS-114 = system: DMS-114
HOP-18 = system: HOP-18
BT-549 = system: BT-549
RXF 631 = system: RXF 631

SMILES | GI50 (Hs-578T) | GI50 (BT-549) | other results
CCOC(=O)NC(Nc1ccc(S(=O)(=O)Nc2ccc(OC)nn2)cc1)(C(F)(F)F)C(F)(F)F | 35.2 µM (inactive) |  | 
CCCO/N=[N+](\[O-])N(CC)CC |  |  | GI50 (XF498): > 100 µM (inactive); GI50 (SNB-78): > 100 µM (inactive); GI50 (KM-20L2): > 100 µM (inactive)
COc1cc2c3c(c1OC)C1(C=CC(=O)C=C1)CC3N(C(=O)OC(C)(C)C(Cl)(Cl)Cl)CC2 (configuration not stated) |  |  | GI50 (M19-MEL): 10.8 µM (inactive); GI50 (DMS-114): 7.55 µM (inactive); GI50 (XF498): 8.69 µM (inactive); GI50 (SNB-78): 14.4 µM (inactive); GI50 (HOP-18): 22.8 µM (inactive); GI50 (KM-20L2): 11.4 µM (inactive)
CCOC(=O)C(CC(C)C)NC(=O)C(Cc1ccccc1)NC(=O)CNC(=O)OC(C)(C)C (stereo not drawn) (Boc-Gly-Phe-Leu-OEt; configuration not given here) | 31.8 µM (inactive) | 27.7 µM (inactive) | 
CCCCCCCCC/C=C1\CCC(CN(C)C)C1=O (configuration not stated) |  |  | GI50 (M19-MEL): 1.86 µM (inactive); GI50 (DMS-114): 2.26 µM (inactive); GI50 (SNB-78): 2.37 µM (inactive); GI50 (RXF 631): 2.07 µM (inactive); GI50 (KM-20L2): 2.18 µM (inactive)
O=C(O)C1(Cc2ccccc2)Cc2ccccc2C1 | 94.4 µM (inactive) | > 100 µM (inactive) | 
O=C(Nc1ccccc1)c1cc(S(=O)(=O)n2ccnc2O)c(S)cc1Cl | > 100 µM (inactive) | > 100 µM (inactive) | 
CC12CCC3=C(CSC4=C3CSc3ccccc34)C1=CCCC2=O (configuration not stated) |  |  | GI50 (M19-MEL): 86.9 µM (inactive); GI50 (DMS-114): 69.5 µM (inactive); GI50 (XF498): 19.7 µM (inactive); GI50 (HOP-18): 39.3 µM (inactive); GI50 (KM-20L2): 51.6 µM (inactive)
COC(=O)C1CCc2c(OC)ccc(OC)c2C1=O (configuration not stated) |  |  | GI50 (M19-MEL): > 100 µM (inactive); GI50 (DMS-114): > 100 µM (inactive); GI50 (SNB-78): > 100 µM (inactive); GI50 (HOP-18): > 100 µM (inactive); GI50 (KM-20L2): > 100 µM (inactive)
c1ccc(/C(=N/Nc2ccccn2)c2ncccn2)cc1 | 2.59 µM (inactive) | 11.5 µM (inactive) | 
CC(C)[C@H](NC(=O)[C@H](C(C)C)N(Cc1ccccc1)Cc1ccccc1)C(=O)N(C)[C@H](C(=O)N1CCC[C@H]1C(=O)N(C)[C@H](C)C(=O)NCc1ccc(Cl)cc1)C(C)C (Bn2Val-V[NMeV]P[dNMeA]-{NH(4-Cl-benzyl)}) | 1.05 µM (active) | 3.18 µM (inactive) | 
CCCCOCCOCCOC1=CC(=O)c2c(O)ccc(O)c2C1=O | 2.55 µM (inactive) | 1.77 µM (inactive) | 
CNC1=C(C)C(=O)C(O)=C([C@H](C)CCC=C(C)C)C1=O | 28.3 µM (inactive) | 52.2 µM (inactive) | 
O=C(c1ccco1)N(Cc1cccnc1)C(=S)N(Cc1cccnc1)C(=O)c1ccco1 | 23.3 µM (inactive) | 23.2 µM (inactive) | 
COc1cccc2c1OCC1Cc3ccccc3OC21 (configuration not stated) |  | 19.1 µM (inactive) | 
[N-]=[N+]=Nc1cc(=O)oc2ccccc12 |  |  | GI50 (M19-MEL): > 100 µM (inactive); GI50 (DMS-114): 42.2 µM (inactive); GI50 (HOP-18): > 100 µM (inactive)
CCOC(=O)c1cn(C)c(=S)n2c1nc1ccccc12 |  | 97.3 µM (inactive) | 
Nc1ccc(S(=O)(=O)Nc2cnc3c(Cl)cccc3n2)cc1 [CHLORSULFAQUINOXALINE] | 63.5 µM (inactive) | > 60.5 µM (inactive) | GI50 (M19-MEL): 232 µM (inactive); GI50 (DMS-114): 2.94 µM (inactive); GI50 (XF498): 275 µM (inactive); GI50 (SNB-78): 151 µM (inactive); GI50 (HOP-18): 189 µM (inactive); GI50 (KM-20L2): 292 µM (inactive)
O=C(O)c1ccc(NC(=O)C2C(=O)C(=O)N(c3ccc(C(=O)O)cc3)C2=O)cc1 (configuration not stated) |  |  | GI50 (M19-MEL): > 100 µM (inactive); GI50 (XF498): > 100 µM (inactive); GI50 (SNB-78): > 100 µM (inactive); GI50 (KM-20L2): > 100 µM (inactive)
COc1ccc(C2C(Cl)C(=O)N2NC(=O)c2ccccc2O)cc1OC (configuration not stated) |  |  | GI50 (M19-MEL): > 100 µM (inactive); GI50 (DMS-114): 41.1 µM (inactive); GI50 (XF498): 15.5 µM (inactive); GI50 (SNB-78): > 100 µM (inactive)
O=C(O)c1ccc(Oc2nc3ccccc3s2)cc1 | 64.4 µM (inactive) | > 100 µM (inactive) | 
Cc1nn(C(=O)c2ccccc2O)c2c1C(c1ccco1)SC(=N)N2 (configuration not stated) | 6.92 µM (inactive) | > 10 µM (inactive) | 
CC1=C(C(=O)OC2CC3CCC2(C)C3(C)C)C2Nc3ccccc3N(C)C2O1 (configuration not stated) | 3.26 µM (inactive) | 2.34 µM (inactive) | 
CCN(CC)c1ccc2cc(C(=O)Nc3ccccc3OC)c(=N)oc2c1 | 22.1 µM (inactive) | 26.6 µM (inactive) | 
Cc1oc(N)c(S(=O)(=O)c2ccc(Cl)cc2)c1C | 50.7 µM (inactive) | 17.6 µM (inactive) | 
CCC(C)C(=O)OC1C(=O)OC2CC3C(C)=CC(=O)C(O)C3(C)C3C4(O)OCC23C1C(C)C4O (configuration not stated) | < 0.0202 µM (active) | < 0.017 µM (active) | 
CCOC(=O)/C(=C\c1c[nH]c2ccccc12)P(=O)(OCC)OCC | 42.8 µM (inactive) | 25.4 µM (inactive) | 
Cc1sc2nc(-c3ccc([N+](=O)[O-])cc3)c(/C=N/N=C(N)N)n2c1C | 1.61 µM (inactive) | 1.41 µM (inactive) | 
N#CCCN(CCCN(C(=O)N(c1ccccc1)c1ccccc1)c1ccccc1)C(=O)Nc1ccccc1 | 67.3 µM (inactive) | > 100 µM (inactive) | 
O=C(NC1CCN(Cc2ccccc2)CC1)c1ccccc1I | 17.9 µM (inactive) | 51.1 µM (inactive) | 
